The text below walks through data of PubChem BioAssay AID1320 (NMMLSC, 2008).

The source made the active and inactive calls. How the calls were made is not given here.

In the first test the target is Bcl-2-related protein A1 (Homo sapiens) (UniProt Q16548). The test is described as follows: Bfl-1/Bim complex disruptors – biochemical, multiplexed, bead-based flow cytometry, dose response (AID 1320). On percent span (inhibition): test concentration not given here. The following applies: Bim peptide-Bfl-1 binding, fluorescence. On the technique in general: In flow cytometry, cells or beads pass a laser one at a time.
Bcl-2-related protein A1 (Homo sapiens), sequence (Q16548 whole entry, looked up): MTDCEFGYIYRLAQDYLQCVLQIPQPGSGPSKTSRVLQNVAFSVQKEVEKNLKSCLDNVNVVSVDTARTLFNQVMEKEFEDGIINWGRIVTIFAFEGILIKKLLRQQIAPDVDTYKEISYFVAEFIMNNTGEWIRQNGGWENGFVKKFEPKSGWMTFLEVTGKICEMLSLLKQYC
On to `CC1CC2=C(NC(=S)NC2c2cccc(F)c2)/C(=C/c2cccc(F)c2)C1` (stereo unspecified), for which the EC50 entry was “inactive”. On the same count and under the same terms, the result for `Cc1c(NC2=C(Cl)C(=O)N(c3ccccc3)C2=O)c(=O)n(-c2ccccc2)n1C` reads “inactive”.

Staying with this test, now noted: Bim peptide-Bfl-1 binding, fluorescence.
With `CC1Cc2ccccc2N1C(=O)CSc1nnnn1-c1ccc2c(c1)OCCO2` (stereo unspecified), the “percent span (inhibition)” value was “inactive”. On the same count and under the same terms, the result for `CNc1nc2ccccc2n1/N=C/c1cccc(OC)c1OC` reads “inactive”.

On to `CSc1nnc2ccc(-c3cccs3)nn12`, for which the “percent span (inhibition)” value was “inactive”. For `Cc1cccc(-c2nnc3n2N=C(c2ccccc2)CS3)c1`, the “percent span (inhibition)” value is “inactive”. Regarding `CC1(C)Cc2c(ccc3ccccc23)/C(=C/C(=O)N2CCCCC2)N1`, the “percent span (inhibition)” value was “inactive”. The same measure, in the same setting: in the case of `COCCNc1nc(=S)[nH]c2cc(OC)c(OC)cc12` it was “inactive”. Same read-out and setting: in the case of `Cc1cc(N2CCN(C)CC2)nc2ccc(NC(=S)N3CCN(c4ccc(F)cc4)CC3)cc12` it was “inactive”; in that of `CCOC(=O)CCCNC(=O)c1cncc(O)c1`, “inactive”; in that of `COc1ccc(NC(=O)c2ccc3c(c2)NC(=O)CS3)cc1S(=O)(=O)Nc1ccc(Br)cc1`, “inactive”. Still for that read-out and setting: the result for `O=C(O)/C=C/C(=O)NNC(=O)c1ccc(Br)cc1` reads “inactive”; that for `CC(C)C(=O)N1CCN(c2ccc([N+](=O)[O-])cc2Cl)CC1`, “inactive”; that for `O=C(c1ccc(CNS(=O)(=O)c2ccc(Br)cc2)cc1)N1CCCC1`, “inactive”.

As for `O=C(NCc1ccco1)C1CC2CCC1C2` (stereo unspecified), the “percent span (inhibition)” value was “inactive”. On the same count and under the same terms, the result for `Cc1cccc(-n2c(O)c(/C=N/N3CCOCC3)c(=O)[nH]c2=S)c1` reads “inactive”; that for `COc1cccc(/C=N/Nc2nn3cnnc3c3ccccc23)c1`, “inactive”; that for `CCC(CC)C(=O)Nc1cccc(SC)c1`, “inactive”.

As to `COc1ccc(CC(=O)Nc2ccccc2Oc2ccccc2)cc1`, the “percent span (inhibition)” value is “inactive”. Still for that read-out and setting: the result for `CNCc1ccccc1Sc1cc(O)ccc1O` reads “inactive”; that for `CN(Cc1ccccc1)c1nc2c(c(=O)[nH]c(=O)n2C)n1C`, “inactive”; that for `CC1(C)CC(=O)C(C=NCCN2CCN(CCc3ccccc3)CC2)=C(O)C1`, “inactive”.

For `O=C(/C=C/c1ccc(-c2ccccc2[N+](=O)[O-])o1)c1ccc(F)cc1`, the “percent span (inhibition)” value was “inactive”. Same read-out and setting: in the case of `COc1c(F)c(F)c(C(=O)Nc2ccccc2N2CCN(C(=O)C(C)C)CC2)c(F)c1F` it was “inactive”; in that of `CCOC(=O)C1=C(CP(=O)(c2ccccc2)c2ccccc2)NC(=O)NC1c1ccc(OC)cc1` (stereo unspecified), “inactive”. Still for that read-out and setting: the result for `O=C(CNC(=O)c1ccco1)NCC(=O)OCc1ccccc1Br` reads “inactive”; that for `CCOC(=O)c1ccc(NC(=O)CSCCC(=O)O)cc1`, “inactive”; that for `O=c1c2c(n3nnnc3n1Cc1ccccc1)-c1ccccc1CC21CCCC1`, “inactive”.

For the molecule `COc1cc(/C=N/Nc2nc3c(c(=O)n(C)c(=O)n3C)n2Cc2ccccc2)ccc1OC(=O)c1ccco1`, the “percent span (inhibition)” value was “inactive”. On the same count and under the same terms, in the case of `Cn1cc(CN2C[C@]3(C)C[C@H]2CC(C)(C)C3)c(-c2ccc3c(c2)OCCO3)n1` it was “inactive”; in that of `C=CCn1c(SCC(=O)Nc2ccc3c(c2)OCO3)nnc1-c1cc(Br)ccc1O`, “inactive”.

As to `O=C(CSc1ccc2nnc(-c3ccncc3)n2n1)Nc1nccs1`, the “percent span (inhibition)” value was “inactive”. As for `COc1ccccc1NC(=O)CSc1nnc(-c2ccco2)n1Cc1ccco1`, the “percent span (inhibition)” value was “inactive”. Consider `Cc1ccc(NN2C(=O)C=CC2=O)cc1`, for which the “percent span (inhibition)” value was “inactive”.

In the case of `C#CCOCCOCCOCCNc1nc(N2CCN(C(=O)[C@H]([C@@H](C)CC)n3cc([C@@H](N)CC(C)C)nn3)CC2)nc(N2CCN(C(=O)[C@H](Cc3cc4ccccc4[nH]3)n3cc([C@@H](N)Cc4ccc(O)cc4)nn3)CC2)n1`, the “percent span (inhibition)” value was “inactive”.

As to `COc1ccc(C(=O)Nc2ccc(C(=O)OCC(=O)c3cccc4ccccc34)cc2)cc1`, the “percent span (inhibition)” value was “inactive”. Same read-out and setting: the result for `CCN(CC)CCN(C(=O)c1ccc(N2C(=O)CCC2=O)cc1)c1nc2cc3c(cc2s1)OCCO3` reads “inactive”; that for `Cc1cccn2c(=O)c3cc(C(N)=S)c(=N)n(CCCN4CCOCC4)c3nc12`, “inactive”; that for `CCOC(=O)c1nn(-c2ccccc2)c(C#N)c1N`, “inactive”.

In the case of `C/C(=N\NC(=O)COc1ccc(C(C)(C)C)cc1)c1ccc2c(c1)OCCO2`, the “percent span (inhibition)” value is “inactive”. Same read-out and setting: the result for `O=C(c1cc2ccccc2oc1=O)N(c1ccccc1)C1C=CS(=O)(=O)C1` (stereo unspecified) reads “inactive”; that for `COC(=O)c1sc2nc[nH]c(=O)c2c1C`, “inactive”; that for `O=C1N/C(=C/c2cccn2-c2ccccc2)C(=O)N1Cc1ccc(F)cc1`, “inactive”. The same measure, in the same setting: in the case of `COC(=O)c1c(NC(=O)COc2ncnc3ccccc23)sc(C)c1C` it was “inactive”; in that of `c1cncc(-c2nnc3n2N=C(c2cccs2)CS3)c1`, “inactive”. On the same count and under the same terms, in the case of `NC(=O)CSc1nnc(Cn2cnc3ccccc32)o1` it was “inactive”; in that of `CN(Cc1ccccc1)C(=O)c1[nH]cnc1C(=O)N[C@@H](CCCCNC(=O)OC(C)(C)C)C(=O)OC(C)(C)C`, “inactive”; in that of `Cc1cc(C)c2nc3nc(C)c(C)cc3c(N)c2c1`, “inactive”. For `O=C(O)CC/C(=C\c1cc([N+](=O)[O-])ccc1Cl)c1nc2ccccc2s1`, the “percent span (inhibition)” value was “inactive”.

Regarding `CCN(CC)c1nc(N)nc(N(c2ccccc2)c2ccccc2)n1`, the “percent span (inhibition)” value was “inactive”.

Turning to `Cc1[nH]c2ccccc2c1C(=O)COC(=O)c1c(-c2c(F)cccc2Cl)noc1C`, the “percent span (inhibition)” value is “inactive”. Same read-out and setting: in the case of `Cc1ccc(OCC(=O)NCc2ccccn2)c(Br)c1` it was “inactive”; in that of `CCOC(=O)C1(CC/C(C)=N\NC(N)=O)CC(C)(C)OC1=O` (stereo unspecified), “inactive”. On the same count and under the same terms, in the case of `Cc1ccc(/C=N/NC(=O)CSc2nnc(-c3ccc(Cl)cc3)n2-c2ccccc2)o1` it was “inactive”; in that of `O=C(O)c1ccc(NS(=O)(=O)c2ccc3c(c2)C(=O)c2ccccc2C3=O)cc1`, “inactive”; in that of `Cc1nc(=S)c2ccccc2[nH]1`, “inactive”. The same measure, in the same setting: in the case of `CCc1ccc(NC(=O)CC2NCCNC2=O)cc1` (stereo unspecified) it was “inactive”. In the case of `CCOC(=O)C1=C(CC)Nc2ccccc2N=C1NC(=O)c1ccc(S(=O)(=O)N2CCOCC2)cc1`, the “percent span (inhibition)” value was “inactive”. Still for that read-out and setting: in the case of `COc1ccc(NC(=O)c2ccco2)cc1NC(=O)c1ccco1` it was “inactive”. The same measure, in the same setting: in the case of `COc1cc(/C=N/NC(=O)CN(Cc2ccco2)S(=O)(=O)c2ccccc2)ccc1O` it was “inactive”; in that of `O=C1NC(=S)S/C1=C/c1ccc(N2CCOCC2)o1`, “inactive”. Same read-out and setting: the result for `COc1ccc(C2(NC(C)=O)CCN(C(=O)c3ccco3)CC2)cc1` reads “inactive”.

Turning to `CC1(C)CC(NC(=O)COc2ccc([N+](=O)[O-])cc2)CC(C)(C)N1`, the “percent span (inhibition)” value was “inactive”. Same read-out and setting: in the case of `N/C(Cc1ccc(Cl)c(Cl)c1)=N\OC(=O)c1cccs1` it was “inactive”; in that of `CN=C(NC1CCCCC1)c1ccc(Cl)cc1`, “inactive”; in that of `CCN(CC)c1ccc(NC(=O)COc2ccccc2C)cc1S(=O)(=O)Nc1ccccc1OC`, “inactive”. Same read-out and setting: the result for `COc1ccccc1-n1c(SCC(=O)N2CCc3ccccc32)nc2c(c1=O)SCC2` reads “inactive”; that for `CC1(C)SC(=S)N(NC(=O)Nc2ccccc2)C1N(O)C(=O)Nc1cccc2ccccc12` (stereo unspecified), “inactive”.

With `CCCOc1ccc(-c2c(C(=O)N/N=C/c3ccc(OC)cc3)nnn2-c2nonc2N)cc1`, the “percent span (inhibition)” value is “inactive”.

On to `O=C(CSc1nnc(-c2cccs2)n1Cc1ccco1)c1ccc2c(c1)OCO2`, for which the “percent span (inhibition)” value is “inactive”. Turning to `CN1CCN(c2ccccc2N)CC1`, the “percent span (inhibition)” value is “inactive”. Still for that read-out and setting: the result for `CN(C)/C=C/C(=O)c1ccc(C(F)(F)F)cc1F` reads “inactive”; that for `O=C(Nc1ccccc1N1CCOCC1)c1cccs1`, “inactive”; that for `Cc1ccccc1/C=N/Nc1ccnc2cc(Cl)ccc12`, “inactive”.

Consider `c1ccc2c(N3CCOCC3)nc(N3CCOCC3)nc2c1`, for which the “percent span (inhibition)” value was “inactive”. Same read-out and setting: the result for `CN(C)CCNC(=O)C(=O)C1C(=O)Nc2ccccc21` (stereo unspecified) reads “inactive”; that for `O=C(Cc1ccc(-c2ccccc2)cc1)NC1CCCC1`, “inactive”; that for `CCCc1nnc2n1N=C(c1ccc(-c3cc(Cl)ccc3Cl)o1)CS2`, “inactive”.

`CCOc1ccc(NCc2ccccc2OCc2cccc(F)c2)cc1`: the “percent span (inhibition)” value is “inactive”. Take `Cc1cc(C)c[n+](-c2nc3ccccc3nc2C(=C=[N-])C#N)c1`: the “percent span (inhibition)” value was “inactive”. Same read-out and setting: the result for `CCOc1c(Cl)cc(CNc2ccc(N3CCCC3)cc2)cc1OC` reads “inactive”. The same measure, in the same setting: the result for `Cc1ccc(-c2n[nH]c(=S)n2-c2ccccc2)cc1` reads “inactive”; that for `Cn1c(OCc2cccnc2)nc2c1c(=O)n(Cc1ccccc1)c(=O)n2C`, “inactive”. The same measure, in the same setting: in the case of `O=C(Cn1cncc1-c1ccc([N+](=O)[O-])cc1)Nc1ccccc1F` it was “inactive”; in that of `COc1cc(/C=C2\SC(=S)NC2=O)ccc1OS(=O)(=O)c1ccccc1`, “inactive”; in that of `CCC(=O)NC(c1ccc(C)cc1)c1cc([N+](=O)[O-])c2cccnc2c1O` (stereo unspecified), “inactive”.
